{"source": "patent US20050288292A1", "about": "“Pharmaceutical formulation and its use in the treatment of inner ear diseases” (priority 2002, published 2005)", "key": {"[1]": {"test_system": "muscular tinnitus (myognathic tinnitus)", "assay": "Intravenous Caroverin in muscular (myognathic) tinnitus", "assay_type": "in vivo", "conditions": "intravenous administration", "source_text": "In addition, new trials by the inventor have shown that Caroverin is not indicated for the treatment of all forms of tinnitus. […] Muscular or myognathic tinnitus is identified by imparting an electrical charge to the chewing musculature, whereby the intensity and frequency of the symptoms of tinnitus can be altered. Myognathic tinnitus can substantially be caused to disappear when the tendon bundles of the middle ear musculature that operates the chain of auditory ossicles are surgically sectioned (tenotomy). The precise mechanism involved in this effect is still unclear."}, "[2]": {"test_system": "cochlear post-synaptic tinnitus", "conditions": "infusion; according to EP 0 542 689; cited from earlier work"}}}
{"smiles": "CCN(CC)CCn1c(=O)c(Cc2ccc(OC)cc2)nc2ccccc21", "note": "[Caroverin, 1-diethylaminoethyl-3-(p-methoxybenzyl)-1,2-dihydro-quinoxaline-2-one]", "values": [{"measurement": "response of muscular (myognathic) tinnitus", "setting": "[1]", "result": "not responsive"}, {"measurement": "treatability of cochlear post-synaptic tinnitus", "setting": "[2]", "result": "treatable"}]}
